From patent US9169254B2, “Spiroimidazolone derivative” (Chugai Seiyaku Kabushiki Kaisha, priority 2009, dated 2015) come the findings set out here.

The target in the first assay is T1, human PTH1 receptor (Homo sapiens, UniProt Q03431).
T1 sequence (Q03431 27-593): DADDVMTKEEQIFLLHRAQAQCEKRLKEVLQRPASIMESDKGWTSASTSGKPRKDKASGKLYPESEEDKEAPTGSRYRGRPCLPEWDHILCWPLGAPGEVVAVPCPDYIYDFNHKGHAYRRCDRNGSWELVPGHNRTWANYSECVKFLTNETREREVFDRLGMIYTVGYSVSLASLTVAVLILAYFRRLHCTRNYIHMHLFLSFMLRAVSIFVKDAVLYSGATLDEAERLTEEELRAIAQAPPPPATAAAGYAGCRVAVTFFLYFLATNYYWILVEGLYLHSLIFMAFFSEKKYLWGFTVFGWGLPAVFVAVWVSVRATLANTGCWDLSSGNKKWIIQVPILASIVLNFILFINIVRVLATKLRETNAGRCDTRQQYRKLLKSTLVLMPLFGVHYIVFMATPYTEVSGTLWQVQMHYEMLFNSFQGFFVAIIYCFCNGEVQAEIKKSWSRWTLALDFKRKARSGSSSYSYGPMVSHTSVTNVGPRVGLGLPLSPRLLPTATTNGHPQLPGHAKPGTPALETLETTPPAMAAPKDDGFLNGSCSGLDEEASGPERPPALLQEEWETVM
Description: In vitro cAMP signal activity in HKRK-B7 cells (LLC-PK1 cells overexpressing the human PTH1 receptor). It counts as cell-based. The following applies: HKRK-B7 cells; compound at 1×10^−3 M; […]; 0.1 µM.
Take `Cc1cc(C(=O)N2CCC(F)(CO)CC2)ccc1CCS(=O)(=O)N1CCC2(CC1)N=C([C@H]1CC[C@H](CC=C(F)F)CC1)NC2=O` [Compound 973, 2-[4-(3,3-Difluoro-allyl)-cyclohexyl]-8-{2-[4-(4-fluoro-4-hydroxymethyl-piperidine-1-carbonyl)-2-methyl-phenyl}-ethanesulfonyl]-1,3,8-triaza-spiro[4.5]dec-1-en-4-one]: the “cAMP production activity (%)” value is 112%.

The assay is the same for the next values; noted with them: HKRK-B7 cells; compound at 1×10^−3 M; cAMP produced as percentage of that produced by hPTH(1-34) at 100 nM.
Consider `CS(=O)(=O)c1cccc(C2=NC3(CCN(S(=O)(=O)c4cccc(Cl)c4)CC3)C(=O)N2)c1` [Compound 32, 8-(3-chloro-benzenesulfonyl)-2-(3-methanesulfonyl-phenyl)-1,3,8-triaza-spiro[4.5]dec-1-en-4-one], for which the “cAMP production activity (%)” value is given as 26%.

On to `Cc1cc(N2C(=O)NC(C)(C)C2=O)ccc1/C=C/S(=O)(=O)N1CCC2(CC1)N=C(C1CCC(CCC(F)(F)F)CC1)NC2=O` (centres unmarked) [Compound 540, 5,5-Dimethyl-3-[3-methyl-4-((E)-2-{4-oxo-2-[4-(3,3,3-trifluoro-propyl)-cyclohexyl]-1,3,8-triaza-spiro[4.5]dec-1-ene-8-sulfonyl}-vinyl)-phenyl]-imidazolidine-2,4-dione], for which the “cAMP production activity (%)” value is reported as 22%.

As for `Cc1cc(NC[C@H](O)CO)ccc1CCS(=O)(=O)N1CCC2(CC1)N=C(c1ccc(OC(F)(F)F)cc1)NC2=O` [Compound 156, 8-{2-[4-((S)-2,3-Dihydroxy-propylamino)-2-methyl-phenyl]-ethanesulfonyl}-2-(4-trifluoromethoxy-phenyl)-1,3,8-triaza-spiro[4.5]dec-1-en-4-one], the “cAMP production activity (%)” value amounted to 64%.

With `CC(=O)Nc1ccc(/C=C/S(=O)(=O)N2CCC3(CC2)N=C(c2cccc(C(F)(F)F)c2)NC3=O)c(C)c1` [Compound 215, N-(3-Methyl-4-{(E)-2-[4-oxo-2-(3-trifluoromethyl-phenyl)-1,3,8-triaza-spiro[4.5]dec-1-ene-8-sulfonyl]-vinyl}-phenyl)-acetamide], the “cAMP production activity (%)” value worked out at 81%.

Consider `Cc1cc(C(=O)N(C)C)ccc1-c1ccc(S(=O)(=O)N2CCC3(CC2)N=C(c2ccc(F)c(C(F)(F)F)c2)NC3=O)s1` [Compound 333, 4-{5-[2-(4-fluoro-3-trifluoromethyl-phenyl)-4-oxo-1,3,8-triaza-spiro[4.5]dec-1-ene-8-sulfonyl]-thiophen-2-yl}-3,N,N-trimethyl-benzamide], for which the “cAMP production activity (%)” value is given as 87%.

Regarding `CCc1cc(N(C)C(N)=O)ccc1CCS(=O)(=O)N1CCC2(CC1)N=C(C1CCC(C)CC1)NC2=O` (centres unmarked) [Compound 829, 1-(3-ethyl-4-{2-[2-(4-methyl-cyclohexyl)-4-oxo-1,3,8-triaza-spiro[4.5]dec-1-ene-8-sulfonyl]-ethyl}-phenyl)-1-methyl-urea], the “cAMP production activity (%)” value is given as 79%.

Regarding `Cc1cc(N(C)C(N)=O)cc(C)c1CCS(=O)(=O)N1CCC2(CC1)N=C(CCCCCCCCCC(N)=O)NC2=O` [Compound 1363, 10-(8-{2-[2,6-dimethyl-4-(1-methyl-ureido)-phenyl]-ethanesulfonyl}-4-oxo-1,3,8-triaza-spiro[4.5]dec-1-en-2-yl)-decanoic acid amide], the “cAMP production activity (%)” value is 80%.

`Cc1cc(N2C(=O)NC(COC(C)(C)C)C2=O)cc(C)c1CCS(=O)(=O)N1CCC2(CC1)N=C([C@H]1CC[C@H](C)CC1)NC2=O` (some centres unmarked) [Compound 833, 5-tert-butoxymethyl-3-(3,5-dimethyl-4-{2-[2-(4-methyl-cyclohexyl)-4-oxo-1,3,8-triaza-spiro[4.5]dec-1-ene-8-sulfonyl]-ethyl}-phenyl)-imidazolidine-2,4-dione]: the “cAMP production activity (%)” value was found to be 34%.

Take `CC(=O)N(CCO)c1cccc(CCS(=O)(=O)N2CCC3(CC2)N=C(c2cccc(OC(F)(F)F)c2)NC3=O)c1C` [Compound 327, N-(2-Hydroxy-ethyl)-N-(2-methyl-3-{2-[4-oxo-2-(3-trifluoromethoxy-phenyl)-1,3,8-triaza-spiro[4.5]dec-1-ene-8-sulfonyl]-ethyl}-phenyl)-acetamide]: the “cAMP production activity (%)” value worked out at 84%.

Regarding `CCc1cc(NC(C)=O)ccc1/C=C/S(=O)(=O)N1CCC2(CC1)N=C(C1CCC(C)CC1)NC2=O` (centres unmarked) [Compound 510, N-(3-ethyl-4-{(E)-2-[2-(4-methyl-cyclohexyl)-4-oxo-1,3,8-triaza-spiro[4.5]dec-1-ene-8-sulfonyl]-vinyl}-phenyl)-acetamide], the “cAMP production activity (%)” value is on record as 57%.

For `CC(=O)Nc1ccc(CCS(=O)(=O)N2CCC3(CC2)N=C(c2ccccc2C#N)NC3=O)c(C)c1` [Compound 908, N-(4-{2-[2-(2-cyano-phenyl)-4-oxo-1,3,8-triaza-spiro[4.5]dec-1-ene-8-sulfonyl]-ethyl}-3-methyl-phenyl)-acetamide], the “cAMP production activity (%)” value was 74%.

For `Cc1cc(C(=O)N2CCC(CO)CC2)cc(C)c1/C=C/[S@TB4](=O)(=O)N1CCC2(CC1)N=C(c1ccc(F)c(C(F)(F)F)c1)NC2=O` [Compound 1162, 2-(4-fluoro-3-trifluoromethyl-phenyl)-8-{(E)-2-[4-(4-hydroxymethyl-piperidine-1-carbonyl)-2,6-dimethyl-phenyl]-ethenesulfonyl}-1,3,8-triaza-spiro[4.5]dec-1-en-4-one], the “cAMP production activity (%)” value stood at 112%.

With `CN(C)C(=O)NCc1ccc(/C=C/S(=O)(=O)N2CCC3(CC2)N=C(C2CCCCC2)NC3=O)cc1` [Compound 565, 3-{4-[(E)-2-(2-cyclohexyl-4-oxo-1,3,8-triaza-spiro[4.5]dec-1-ene-8-sulfonyl)-vinyl]-benzyl}-1,1-dimethyl-urea], the “cAMP production activity (%)” value is reported as 45%.

`CCCS(=O)(=O)N1CCCC(C2=NC3(CCN(S(=O)(=O)c4cccc(Cl)c4)CC3)C(=O)N2)C1` (centres unmarked) [Compound 40, 8-(3-chloro-benzenesulfonyl)-2-[1-(propane-1-sulfonyl)-piperidin-3-yl]-1,3,8-triaza-spiro[4.5]dec-1-en-4-one]: the “cAMP production activity (%)” value stood at 19%.

Consider `O=C1NC(C2CCCCC2)=NC12CCN(S(=O)(=O)CC(O)c1cccc3c1ccn3C[C@H](O)CO)CC2` (stereo partly drawn) [Compound 1374, 2-Cyclohexyl-8-{2-[1-((S)-2,3-dihydroxy-propyl)-1H-indol-4-yl]-2-hydroxy-ethanesulfonyl}-1,3,8-triaza-spiro[4.5]dec-1-en-4-one], for which the “cAMP production activity (%)” value was found to be 33%.

Take `[2H]C([2H])([2H])C([2H])([2H])Oc1ccc(C2=NC3(CCN(S(=O)(=O)/C=C/c4c(C)cc(C(=O)N5CCC(O)(CF)CC5)cc4C)CC3)C(=O)N2)cc1C(F)(F)F` [Compound 1253, 2-(4-[1,1,2,2,2-^2H5]ethoxy-3-trifluoromethyl-phenyl)-8-{(E)-2-[4-(4-fluoromethyl-4-hydroxy-piperidine-1-carbonyl)-2,6-dimethyl-phenyl]-ethenesulfonyl}-1,3,8-triaza-spiro[4.5]dec-1-en-4-one]: the “cAMP production activity (%)” value worked out at 81%.

For `CN(C)C(=O)n1ccc2cccc(CCS(=O)(=O)N3CCC4(CC3)N=C(C3CCCCC3)NC4=O)c21` [Compound 647, 7-[2-(2-cyclohexyl-4-oxo-1,3,8-triaza-spiro[4.5]dec-1-ene-8-sulfonyl)-ethyl]-indole-1-carboxylic acid dimethylamide], the “cAMP production activity (%)” value is given as 104%.

In the case of `O=C(CO)N1CCCC(C2=NC3(CCN(S(=O)(=O)c4cccc(Cl)c4)CC3)C(=O)N2)C1` (centres unmarked) [Compound 424, 8-(3-chloro-benzenesulfonyl)-2-[1-(2-hydroxy-acetyl)-piperidin-3-yl]-1,3,8-triaza-spiro[4.5]dec-1-en-4-one], the “cAMP production activity (%)” value is 2.5%.

Turning to `CC(=O)Nc1ccc(CCS(=O)(=O)N2CCC3(CC2)N=C(C2CCC(C(C)(C)C)CC2)NC3=O)c(C)c1` (centres unmarked) [Compound 909, N-(4-{2-[2-(4-tert-butyl-cyclohexyl)-4-oxo-1,3,8-triaza-spiro[4.5]dec-1-ene-8-sulfonyl]-ethyl}-3-methyl-phenyl)-acetamide], the “cAMP production activity (%)” value turned out to be 78%.

As to `Cc1cc(C(=O)N(C)C2CCN(C)CC2)cc(C)c1/C=C/S(=O)(=O)N1CCC2(CC1)N=C(c1cccc(C(F)(F)F)c1)NC2=O` [Compound 393, 3,5,N-trimethyl-N-(1-methyl-piperidin-4-yl)-4-{(E)-2-[4-oxo-2-(3-trifluoromethyl-phenyl)-1,3,8-triaza-spiro[4.5]dec-1-ene-8-sulfonyl]-vinyl}-benzamide], the “cAMP production activity (%)” value stood at 44%.

`CC(=O)Nc1ccc(CCS(=O)(=O)N2CCC3(CC2)N=C(C2CCC(C(C)(C)F)CC2)NC3=O)c(C)c1` (centres unmarked) [Compound 1078, N-[4-(2-{2-[4-(1-Fluoro-1-methyl-ethyl)-cyclohexyl]-4-oxo-1,3,8-triaza-spiro[4.5]dec-1-ene-8-sulfonyl}-ethyl)-3-methyl-phenyl]-acetamide]: the “cAMP production activity (%)” value is 74%.

Turning to `CC(=O)N(C)c1cc(F)c(/C=C/S(=O)(=O)N2CCC3(CC2)N=C(C2CCC(C)CC2)NC3=O)c(F)c1` (centres unmarked) [Compound 523, N-(3,5-difluoro-4-{(E)-2-[2-(4-methyl-cyclohexyl)-4-oxo-1,3,8-triaza-spiro[4.5]dec-1-ene-8-sulfonyl]-vinyl}-phenyl)-N-methyl-acetamide], the “cAMP production activity (%)” value came out at 89%.
